This assay addresses T1, human kinase Mps-1 (Homo sapiens, UniProt P33981).
T1 construct: N-terminally GST-tagged human full length recombinant Mps-1 kinase; GST (N); purchased Invitrogen, Karslruhe, Germany PV4071
T1 sequence (P33981 1-857): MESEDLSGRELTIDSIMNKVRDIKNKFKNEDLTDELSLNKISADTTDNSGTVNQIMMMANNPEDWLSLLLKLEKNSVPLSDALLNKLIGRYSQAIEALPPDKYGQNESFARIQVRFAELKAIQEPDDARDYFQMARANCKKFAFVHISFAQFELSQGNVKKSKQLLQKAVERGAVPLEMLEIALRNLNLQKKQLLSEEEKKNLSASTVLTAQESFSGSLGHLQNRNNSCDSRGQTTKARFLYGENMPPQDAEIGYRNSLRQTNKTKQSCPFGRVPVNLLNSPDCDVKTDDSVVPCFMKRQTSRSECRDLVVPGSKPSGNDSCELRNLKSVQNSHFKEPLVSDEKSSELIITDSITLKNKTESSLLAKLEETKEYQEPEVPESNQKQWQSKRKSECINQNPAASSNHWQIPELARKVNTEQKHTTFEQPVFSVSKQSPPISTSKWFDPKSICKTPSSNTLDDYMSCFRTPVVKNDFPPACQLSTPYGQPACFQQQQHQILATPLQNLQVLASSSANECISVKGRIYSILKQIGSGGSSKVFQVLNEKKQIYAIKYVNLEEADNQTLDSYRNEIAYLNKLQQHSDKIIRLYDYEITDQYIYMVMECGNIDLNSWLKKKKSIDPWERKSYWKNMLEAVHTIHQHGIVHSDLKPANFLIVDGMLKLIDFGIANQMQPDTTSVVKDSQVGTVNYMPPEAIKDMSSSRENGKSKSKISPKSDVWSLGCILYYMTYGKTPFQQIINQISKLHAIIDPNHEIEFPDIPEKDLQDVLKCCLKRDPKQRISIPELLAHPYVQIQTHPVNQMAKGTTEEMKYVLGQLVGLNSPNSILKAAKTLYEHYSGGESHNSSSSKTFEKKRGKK
Nature of the assay: Mps-1 kinase assay (TR-FRET). It counts as biochemical. As to conditions: N-terminally GST-tagged human full length recombinant Mps-1; 10 μM ATP; 1 μM peptide substrate; 15 min pre-incubation; 60 min at 22° C. Put shortly:
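TR-FRET read-out: after 1 h binding at 22° C, Eu-labelled anti-phospho-Ser/Thr antibody transfers to SA-XLent on the phosphorylated biotinylated peptide. The enzyme is GST-tagged full-length human Mps-1, typically about 1 nM final, in the linear range.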
For orientation: TR-FRET usually uses a lanthanide donor and a delayed reading to cut background.
Regarding `CSc1ccc(-c2cn3c(-c4ccc(C(=O)NC5CC5)cc4)cnc3c(NCC(C)C)n2)cc1` [Example 1-18, N-cyclopropyl-4-{8-[(2-methylpropyl)amino]-6-[4-(methylsulfanyl)phenyl]imidazo[1,2-a]pyrazin-3-yl}benzamide], the IC50 (as a rule, the concentration at which inhibition is half-maximal) came to 8.5 nM.
`CC(C)CNc1nc(-c2ccccc2CO)cn2c(-c3ccc(C(=O)NC4CC4)cc3)cnc12` [Example 1-77, N-cyclopropyl-4-{6-[2-(hydroxymethyl)phenyl]-8-[(2-methylpropyl)amino]imidazo[1,2-a]pyrazin-3-yl}benzamide]: the IC50 came out at 1.2 nM.
As for `Cc1cc(-c2cnc3c(NCC(C)(C)O)nc(-c4ccc(F)cc4)cn23)ccc1C(=O)NC1CC1` [Example 1-136, N-cyclopropyl-4-{6-(4-fluorophenyl)-8-[(2-hydroxy-2-methylpropyl)amino]imidazo[1,2-a]pyrazin-3-yl}-2-methylbenzamide], the IC50 was determined as 7.9 nM.
Next, `CN1CCCC1CCNc1nc(-c2ccccc2)cn2c(-c3ccc(C(=O)NC4CC4)cc3)cnc12` (stereo not drawn) [Example 2-10, N-cyclopropyl-4-(8-{[2-(1-methylpyrrolidin-2-yl)ethyl]amino}-6-phenylimidazo[1,2-a]pyrazin-3-yl)benzamide]: 16.6 nM; `O=C(NC1CC1)c1ccc(-c2cnc3c(NCC4CCCCC4)nc(-c4ccccc4)cn23)cc1` [Example 2-66, 4-{8-[(Cyclohexylmethyl)amino]-6-phenylimidazo[1,2-a]pyrazin-3-yl}-N-cyclopropylbenzamide]: 6.2 nM.
On to `CC(C)CNc1nc(-c2ccc(Cl)c(Cl)c2)cn2c(-c3ccc(C(=O)NC4CC4)cc3)cnc12` [Example 1-45, N-cyclopropyl-4-{6-(3,4-dichlorophenyl)-8-[(2-methylpropyl)amino]imidazo[1,2-a]pyrazin-3-yl}benzamide], for which the IC50 was 22.6 nM.
As to `O=C(NC1CC1)c1ccc(-c2cnc3c(NCc4ccco4)nc(-c4ccccc4)cn23)cc1` [Example 2-75, N-cyclopropyl-4-{8-[(2-furylmethyl)amino]-6-phenylimidazo[1,2-a]pyrazin-3-yl}benzamide], the IC50 was 3.2 nM.
On to `CC(C)CNc1nc(-c2ccc(N(C)C)cc2)cn2c(-c3ccc(C(=O)NC4CC4)c(Cl)c3)cnc12` [Example 1-94, 2-chloro-N-cyclopropyl-4-{6-[4-(dimethylamino)phenyl]-8-[(2-methyl-propyl)amino]imidazo [1,2-a]pyrazin-3-yl} benzamide], for which the IC50 turned out to be 19.8 nM.
For the compound `Cn1nccc1CNc1nc(-c2ccc(F)cc2)cn2c(-c3ccc(C(=O)NC4CC4)c(Cl)c3)cnc12` [Example 1-107, 2-chloro-N-cyclopropyl-4-[6-(4-fluorophenyl)-8-{[(1-methyl-1H-pyrazol-5-yl)methyl]amino}imidazo[1,2-a]pyrazin-3-yl]benzamide], the IC50 was found to be 13.2 nM.
Next, `CC(C)CNc1nc(-c2cccc(C(F)(F)F)c2)cn2c(-c3ccc(C(=O)NC4CC4)cc3)cnc12` [Example 1-35, N-cyclopropyl-4-{8-[(2-methylpropyl)amino]-6-[3-(trifluoromethyl)phenyl]imidazo[1,2-a]pyrazin-3-yl}benzamide]: 49.3 nM.
The same measure for `O=C(NC1CC1)c1ccc(-c2cnc3c(NCc4ccoc4)nc(-c4ccccc4)cn23)cc1` [Example 2-76, N-cyclopropyl-4-{8-[(3-furylmethyl)amino]-6-phenylimidazo[1,2-a]pyrazin-3-yl}benzamide]: 2.8 nM; for `O=C(NC1CC1)c1ccc(-c2cnc3c(NCCc4cccnc4)nc(-c4ccccc4)cn23)cc1` [Example 2-50, N-cyclopropyl-4-(6-phenyl-8-{[2-(pyridin-3-yl)ethyl]amino}imidazo[1,2-a]pyrazin-3-yl) benzamide]: 8 nM; for `O=C(NC1CC1)c1ccc(-c2cnc3c(NC[C@H](O)CO)nc(-c4ccccc4)cn23)cc1` [Example 2-82, N-cyclopropyl-4-(8-{[(2S)-2,3-dihydroxypropyl]amino}-6-phenylimidazo[1,2-a]pyrazin-3-yl)benzamide]: 4.4 nM.
For the compound `CN(C)c1ccc(-c2cn3c(-c4ccc(C(=O)NC5CC5)c(Cl)c4)cnc3c(NCC3CCCO3)n2)cc1` (stereo not drawn) [Example 1-105, 2-chloro-N-cyclopropyl-4-{6-[4-(dimethylamino)phenyl]-8-[(tetrahydro-furan-2-ylmethyl)amino]imidazo[1,2-a]pyrazin-3-yl}benzamide], the IC50 is 78.3 nM.
As for `Cc1cc(-c2cnc3c(NCCC(F)(F)F)nc(-c4ccc(F)cc4)cn23)ccc1C(=O)NC1CC1` [Example 10-1, N-cyclopropyl-4-{6-(4-fluorophenyl)-8-[(3,3,3-trifluoropropyl)amino]imidazo[1,2-a]pyrazin-3-yl}-2-methylbenzamide], the IC50 worked out at 3.6 nM.
The same measure for `CC(C)(O)CNc1nc(-c2ccccc2CO)cn2c(-c3ccc(C(=O)NC4CC4)cc3)cnc12` [Example 1-132, N-cyclopropyl-4-{6-[2-(hydroxymethyl)phenyl]-8-[(2-hydroxy-2-methylpropyl)amino]imidazo[1,2-a]pyrazin-3-yl}benzamide]: 10.3 nM.
Take `CCN(CC)CCNc1nc(-c2ccccc2)cn2c(-c3ccc(C(=O)NC4CC4)cc3)cnc12` [Example 2-2, N-cyclopropyl-4-(8-{[2-(diethylamino)ethyl]amino}-6-phenylimidazo[1,2-a]pyrazin-3-yl)benzamide]: the IC50 came to 47.7 nM.
For `CC(C)CNc1nc(-c2ccc(S(C)(=O)=O)cc2)cn2c(-c3ccc(C(=O)NC4CC4)cc3)cnc12` [Example 1-75, N-cyclopropyl-4-{8-[(2-methylpropyl)amino]-6-[4-(methylsulfonyl)phenyl]imidazo[1,2-a]pyrazin-3-yl}benzamide], the IC50 is 2.5 nM.
The same measure for `CC(C)CNc1nc(-c2cccc(S(N)(=O)=O)c2)cn2c(-c3ccc(C(=O)NC4CC4)cc3)cnc12` [Example 1-129, N-cyclopropyl-4-[8-(isobutylamino)-6-(3-sulfamoylphenyl)imidazo [1,2-a]pyrazin-3-yl] benzamide]: 1.9 nM.
The same measure for `O=C(NC1CC1)c1ccc(-c2cnc3c(NCCOCC(F)(F)F)nc(-c4ccccc4)cn23)cc1` [Example 2-88, N-cyclopropyl-4-(6-phenyl-8-{[2-(2,2,2-trifluoroethoxy)ethyl]amino}imidazo[1,2-a]pyrazin-3-yl)benzamide]: 3.6 nM; for `CC(C)CNc1nc(-c2ccc(CCO)cc2)cn2c(-c3ccc(C(=O)NC4CC4)cc3)cnc12` [Example 6-1, N-cyclopropyl-4-{6-[4-(2-hydroxyethyl)phenyl]-8-(isobutylamino)imidazo[1,2-a]pyrazin-3-yl}benzamide]: 1 nM.
Next, `O=C(NC1CC1)c1ccc(-c2cnc3c(NC[C@@H](O)CO)nc(-c4ccccc4)cn23)cc1` [Example 2-81, N-cyclopropyl-4-(8-{[(2R)-2,3-dihydroxypropyl]amino}-6-phenylimidazo[1,2-a]pyrazin-3-yl)benzamide]: 1.9 nM.
`CC(C)CNc1nc(-c2cccc(F)c2)cn2c(-c3ccc(C(=O)NC4CC4)cc3)cnc12` [Example 1-40, N-cyclopropyl-4-{6-(3-fluorophenyl)-8-[(2-methylpropyl)amino]imidazo[1,2-a]pyrazin-3-yl}benzamide]: the IC50 worked out at 6.9 nM.
Next, `Cn1nccc1CNc1nc(-c2ccccc2CO)cn2c(-c3ccc(C(=O)NC4CC4)c(F)c3)cnc12` [Example 1-121, N-cyclopropyl-2-fluoro-4-(6-[2-(hydroxymethyl)phenyl]-8-{[(1-methyl-1H-pyrazol-5-yl)methyl]amino}imidazo[1,2-a]pyrazin-3-yl)benzamide]: 11.1 nM; `Cc1ccccc1-c1cn2c(-c3ccc(C(=O)NC4CC4)cc3)cnc2c(NCC(C)C)n1` [Example 1-19, N-cyclopropyl-4-{6-(2-methylphenyl)-8-[(2-methylpropyl)amino]imidazo[1,2-a]pyrazin-3-yl}benzamide]: 1.5 nM; `O=C(NC1CC1)c1ccc(-c2cnc3c(NCc4cccc(Cl)c4)nc(-c4ccccc4)cn23)cc1` [Example 2-6, 4-{8-[(3-chlorobenzyl)amino]-6-phenylimidazo [1,2-a]pyrazin-3-yl}-N-cyclopropylbenzamide]: 13.8 nM.
As to `CC(C)CNc1nc(-c2ccc(Cl)cc2Cl)cn2c(-c3ccc(C(=O)NC4CC4)cc3)cnc12` [Example 1-87, N-cyclopropyl-4-{6-(2,4-dichlorophenyl)-8-[(2-methylpropyl)amino]imidazo[1,2-a]pyrazin-3-yl}benzamide], the IC50 worked out at 6.7 nM.

(Values after patent US20140187548A1, “6 SUBSTITUTED IMIDAZOPYRAZINES FOR USE AS MPS-1 AND TKK INHIBITORS IN THE TREATMENT OF HYPERPROLIFERATIVE DISORDERS” (BAYER INTELLECTUAL PROPERTY GMBH, priority 2010, published 2014).)
